Source: patent publication US20240299321A1, “METHODS TO SENSITIZE CANCER CELLS AND STANDARDIZED SCREENING ASSAY FOR IMMUNOTHERAPY” (THE TRUSTEES OF INDIANA UNIVERSITY, priority 2020, published 2024)

Tests used:
[1] = tested on: EO771 (Luc+OVA+) tumor organoids; test: EO771 tumor organoid and OVA-specific CD8+ T cell co-culture cytotoxicity; format: cell-based, mouse; conditions: for outcome of combined 2D co-culture, tumor organoid co-culture and antigen presentation screens: 1 μM, 48 h treatment; for organoid dissociation / tumor cell death rates: co-culture with T cells
Source text: In accordance with the present disclosure a drug screen platform was used to identify epigenetic inhibitors that increase a cancer cell's sensitivity to CD8+ T-cell cytotoxicity. In one embodiment the drug screen platform is composed of breast tumor organoids and tumor-specific CD8+ T cells. A lentiviral vector expressing OVA was transduced to the Luc+EO771 cells. The resulting OVA+ cells were orthotopically transplanted to C57BL/6 mice to generate syngeneic mammary tumors. The tumors were harvested and dissociated to single cells for 2D culture and only the adherent cells were collected to generate tumor organoids. 2 ml of tumor organoid culture medium (2×10^5 cells per ml) were seeded into 6-well culture plate with ultra-low attachment surface. After 7-day culture, tumor organoids were filtered by cell strainers with nylon mesh between 70 and 150 μm. The tumor organoids with diameter between 70 and 150 μm were treated with drugs for 48 h in the matrigel-free medium. The treated tumor organoids were then co-cultured with the pre-activated and OVA-specific CD8+ T cells from OT-I mice in the breast organoid culture medium containing 10 ng ml-1 IL2 without matrigel for 24 h. The luciferase released from the EO771 cells was measured using a Dual-luciferase report assay system (Promega) on a BioTek Cytation5 imaging reader, to assess the T cell-mediated cytotoxicity effect.
Cytotoxicity of CD8+ T cells in the co-culture with tumor organoids We generated mouse EO771 (Luc+OVA+) cell line that presents OVA257-264 antigen (from chicken ovalbumin) and human MDA-MB-468 (NY-ESO-1+) cell line that presents NY-ESO-1 antigen for use in the T cell-mediated cytotoxicity assay. OVA-specific CD8+ T cells were isolated from the spleen of OT-I mouse that contains transgenic inserts of Tcra-V2 and Tcrb-V5 genes. The transgenic T cell receptor can recognize the ovalbumin peptide SIINFEKL (OVA257-264; SEQ ID NO: 55). Anti-NY-ESO-1 human CD8^+ T cells (CELLERO™) were used to recognize the NY-ESO-1+ MDA-MB-468 cells. Autologous human CD8+ T cells were isolated from patient tumor tissues and amplified in the DMEM/F12 medium supplemented with 10% FBS, 2 mM Ultraglutamine I, 1% penicillin/streptomycin and 10 ng mL-1 of human IL2 for 7 days. The CD8+ T cells were stimulated by the T-activator CD3/CD28 Dynabeads (Gibco, 11452D for mouse and 11131D for human) for 48 h prior to use for cytotoxicity assay. Mouse and human tumor organoids with diameter between 70 and 150 μm were collected and mixed with corresponding CD8+ T cells in DMEM/F12 medium supplemented with 10% FBS, 2 mM Ultraglutamine I, 1% penicillin/streptomycin and 10 ng mL-1 IL2 (Biolegend, mouse: 575402; human: 589102) at a ratio of organoids versus T cells at 1:200 in the microplates with ultra-low attachment surface. The cells were co-cultured for 24 h and subject to further analyses, such as optical and fluorescence imaging, luciferase assay or flow cytometry.
Epigenetic inhibitor screen on CD8+ T cell-mediated cytotoxicity: The epigenetic inhibitor library (Cayman chemical, Cat #11071, Batch #0522205, data not shown) was used for drug screen. Three different screen methods were conducted. In tumor organoid-T cell co-culture, EO771 (Luc+OVA+) tumor organoids with diameter between 70 and 150 μm were seeded with 100 organoids/well and treated with 1 μM of drug for 48 h. The tumor organoids were centrifuged at 100 rcf for 5 min. The medium were replaced with fresh T cell culture medium containing OVA-specific T cells. A total of 20,000 T cells were added in each well. After co-culture for 24 h, cytotoxicity of tumor cells was measured using a Dual-luciferase report 1000 assay system (Promega) in which luciferase expressed exclusively in the live EO771 (Luc+OVA+) cells was detected by a BioTek Cytation5 imaging reader. Low levels of luciferase from survived tumor cells refer to high cytotoxicity in the co-culture. […]

[2] = tested on: NY-ESO-1-specific CD8+ T cells; test: T cell effector function in MDA-MB-468 organoid co-culture; format: cell-based, human; conditions: vs control groups; FIG. 2D
Description: T cell effector function analysis: We measured cytokine and cytolytic granule production (IFNγ, GZMB and TNFα) of CD8+ T cells from mouse tumor samples and tumor organoid-T cell co-culture. Briefly, CD8+ T cells were placed into the 24-well plate at 1×10^6 cells/well, stimulated with 1 μM ionomycin and 50 ng ml-1 phorbol 12-myristate 13-acetate (PMA) (Sigma-Aldrich) for 4 h, in the presence of 5 μg ml-1 Brefeldin A (BFA), with the purpose to amplify the expression of intracellular cytokines61. The cells were stained with APC/Cy7-conjugated anti-CD8a (Biolegend) for 15 min and then fixed by 4% PFA. After washing, cells were stained with PerCP/Cy7-conjugated anti-GZMB, APC-conjugated anti-IFNγ and PE-conjugated anti-TNFα (Biolegend) for 15 min. In flow cytometric analyses, T cells stained with isotype control antibodies were used as negative controls for gating the cytokine or granule-producing cells. For T cells from tumor organoid-T cell co-culture, tumor organoids were first digested into single cells with TrypLE Express at 37° C. before APC/Cy7-conjugated anti-CD8a staining. In the IFNγ and TNFα secretion assay (Biolegend), T cells were stimulated with ionomycin and PMA without the presence of BFA. The media were collected for ELISA assay.

[3] = tested on: NY-ESO-1+ MDA-MB-468 cells; test: NY-ESO-1+ MDA-MB-468 organoid and NY-ESO-1-specific CD8+ T cell co-culture cytotoxicity; format: cell-based, human; conditions: MDA-MB-468/CAF organoids; FIG. 2C
Description: Breast tumor organoid culture: Single cells isolated from EO771-derived tumors in tumor-bearing C57BL/6 mice were suspended into cold mouse breast cancer culture medium containing 10% Matrigel (Corning) with a concentration of 2×10^5 cells ml^−1. The cells (2 ml) were seeded into each well of pre-warmed 6-well microplate with ultra-low attachment surface (Corning) and cultured at 37° C. with 5% CO2. The same volume of fresh culture medium was added every other day. After 7-day culture, tumor organoids were collected using cell strainers with pore size of 70 and 150 μm. For human tumor organoid culture, 2 ml of NY-ESO-1+ MDA-MB-468 cells with a concentration of 2×10^5 cells ml-1 were seeded into each well of the prewarmed 6-well microplate with ultra-low attachment surface. The cells were cultured for two days to generate tumor spheroids. The resulting spheroids were mixed with cancer associated fibroblasts (CAFs) with a ratio of 2:1 (tumor cells versus CAFs) and cultured in the human breast cancer organoid culture medium3 for 5 days. Finally, the MDA-MB-468 tumor organoids with diameter of 70˜150 μm were used for co-culture with NY-ESO-1-specific human CD8+ T cells (ASTARTE Biologics). Patient-derived organoids (PDOs) were cultured following the same procedures as mouse EO771 tumor organoids using human breast cancer organoid culture medium.
Cytotoxicity of CD8+ T cells in the co-culture with tumor organoids We generated mouse EO771 (Luc+OVA+) cell line that presents OVA257-264 antigen (from chicken ovalbumin) and human MDA-MB-468 (NY-ESO-1+) cell line that presents NY-ESO-1 antigen for use in the T cell-mediated cytotoxicity assay. OVA-specific CD8+ T cells were isolated from the spleen of OT-I mouse that contains transgenic inserts of Tcra-V2 and Tcrb-V5 genes. The transgenic T cell receptor can recognize the ovalbumin peptide SIINFEKL (OVA257-264; SEQ ID NO: 55). […] The cells were co-cultured for 24 h and subject to further analyses, such as optical and fluorescence imaging, luciferase assay or flow cytometry.

Row | Compound | outcome of combined 2D co-culture, tumor organoid co-culture and antigen presentation screens [1] | organoid dissociation [1] | tumor cell death rates [1] | promotion of T cell-mediated cytotoxicity after knockdown of B2M ([1]; shB2M OVA+ EO771 cells, FIG. 4G) | GZMB, IFNγ and TNFα expression levels in the CD8+ T cells [2] | T cell-mediated cytotoxicity [3]
1 | Nc1ccccc1NC(=O)CCCCCCC(=O)Nc1ccccc1 [BML-210] | increase the antigenicity of tumor cells and enhance their response to cytotoxic T cells | greater organoid dissociation | higher tumor cell death rates | completely abolished | much higher | pronouncedly induced
2 | C#Cc1cccc(Nc2ncnc3cc(OC)c(OCCCCCCC(=O)NO)cc23)c1 [CUDC-101] | increase the antigenicity of tumor cells and enhance their response to cytotoxic T cells | greater organoid dissociation | higher tumor cell death rates |  | much higher | pronouncedly induced
3 | c1ccc([C@@H]2C[C@H]2NC2CCNCC2)cc1 [GSK-LSD1] | increase the antigenicity of tumor cells and enhance their response to cytotoxic T cells | greater organoid dissociation | higher tumor cell death rates |  | much higher | pronouncedly induced
